Measured values reported in patent publication US9943599B2, “Therapeutic applications of calcium electroporation to effectively induce tumor necrosis” (Herlev Hospital, priority 2011, dated 2018).

Key:
[1] = system: N32 (rat brain glioma) tumors; assay: Calcium electroporation of brain tumor, MRI and H&E; assay type: in vivo, Sprague Dawley rats
Experimental: N32, a rat brain glioma derived tumor cell line, and 7-11 weeks old Sprague Dawley male rats (Taconic, Hudson N.Y.) were used for the in vivo experiments. The cells were tested by rapid MAP27 panel (Taconic, Hudson N.Y.) before use without signs of infection. Inoculation of 3,000 N32 cells in 5 μl at the stereotaxic coordinates; X=2, Y=1, Z=−4 was performed and verification of tumor by MRI prior to treatment was performed two weeks after inoculation. HYPNORM™-DORMICUM™ (fentanyl/fluanisone/midazolam; VetaPharma, Leeds, U K and Roche, Basel, Switzerland) was used for anesthesia complemented with RIMADYL® (Carprofen) (Pfizer ApS, Ballerup, Denmark) for pain relief after surgery. Tumors were treated two weeks after inoculation with 1) injection of 14 μl calcium-chloride solution (168 mM) and electroporation (32 pulses of 100V for 100 μs and a frequency of 1 Hz) using an 8-electrode device developed for treatment of brain tumors, a square wave electroporator (CLINIPORATOR®, IGEA, Modena, Italy), and a switch box (Sonion), or 2) injection of 14 μl calcium-chloride solution (168 mM) and placement of electrodes but no pulses applied. MRI was performed at day 1, 3, 6, and 8 after treatment. […] The extend of necrosis, the presence of macrophages and the influence on neurons and glia cells were evaluated by H&E, PAS, NF, and GFAP staining, respectively.

[2] = system: skin dermis and subcutis above MDA-MB231 tumor; assay: Normal tissue reaction, skin above the tumor; assay type: in vivo, NMRI-Foxn1nu mice; conditions: some of the mice treated with the high concentration and volume of calcium
Experimental: MDA-MB231, a human breast cancer cell line was used for the in vivo experiments. The cells were tested by rapid MAP27 panel (Taconic, Hudson N.Y.) before use without signs of infection. Cells were maintained in vitro as described in Example 1. 2.5×10^6 cells/100 μl PBS were injected subcutaneously in the flank of NMRI-Foxn1nu mice (Harlan, Indianapolis, Ind.). Tumor pieces were transplanted twice from donor mice to the flank of nude mice that were 13-19 weeks old. HYPNORM™-DORMICUM™ (fentanyl/fluanisone/midazolam; VetaPharma, Leeds, U K and Roche, Basel, Switzerland) was used for anesthesia complemented with RIMADYL® (Carprofen) (Pfizer ApS, Ballerup, Denmark) as well as lidocaine (Region Hovedstadens Apotek, Herlev, Denmark) in the incision. […] Tumor volume was calculated as ab2n/6, where “a” is the largest diameter and “b” is the largest diameter perpendicular to “a”. […] Estimation of normal tissue damages was evaluated semiquantitatively on HE-sections by light[ ]microscopy (LEICA® DM 2000 light microscope, Leica Microsystems, Wetzlar, Germany).
The presence of inflammation in the skin dermis and subcutis was scored from 1-3 (1=minimal, 2=moderate and 3=severe). Edema in the dermis, extravasations of erythrocytes and vasculitis was noted if present, but not scored.

[3] = system: DC-3F cells; assay: ATP assay after calcium electroporation; assay type: cell-based, Chinese hamster
Experimental: DC-3F cells are electroporated as described in Example 1 with 1 mM calcium. Cells electroporated with HEPES buffer, non-electroporated cells with 1 mM calcium, and untreated cells are used as controls. Cell death induced by irreversible electroporation (8 pulses of 6.6 kV/cm with pulse duration of 99 μs) is used as […]. Cells are seeded in 96-well plates at a concentration of 3.1×10^4 cells/100 μl. Cells are lysed using Cell-Based Assay Lysis Buffer (Cayman Chemical, Ann Arbor, Mich.) and ATP content is determined after 1, 4 and 8 hours incubation by adding 100 μl rL/L Reagent (ENLITEN® ATP assay, Promega, Madison, Wis.) and measuring light emission using a luminometer (LUMIstar®, BMG biotechnology, Ortenberg, Germany).
Difference in ATP level after different treatments is assessed using two-way ANOVA with post least-squares-means test with Bonferroni correction for multiple comparisons.

With `[Ca+2].[Cl-].[Cl-]` [calcium chloride] the “tumor size (MRI, H&E)” value ([1]; 14 μl 168 mM calcium alone, no pulses, 6 days after the treatment) was “no effect on tumor size”, the “tumor (MRI, H&E)” value ([1]; 14 μl 168 mM calcium chloride with electroporation (32 pulses 100V), 8 days after the treatment) was “eliminated” and the “ulceration above the tumor” value [2] was “ulceration above the tumor was seen”. For the same compound, the “ATP level, percent of control” value ([3]; 1 mM calcium with electroporation, up to 8 hours after treatment) was 10.3% and the “effect on ATP levels” value ([3]; 1 mM calcium without electroporation) was “does not affect ATP levels”.
